One assay can be described thus: Binding affinity against sigma receptor using radioligand ([3H](+)-pentazocine) binding assay.
As for `CN(CCCc1ccccc1)CCN(C)CCOC(c1ccccc1)c1ccccc1` [N-(2-Benzhydryloxy-ethyl)-N,N'-dimethyl-N'-(3-phenyl-propyl)-ethane-1,2-diamine], the IC50 came out at 0.034 µM.

For `C[C@@H]1CN(CCOC(c2ccc(F)cc2)c2ccc(F)cc2)[C@@H](C)CN1` [(2S,5R)-1-{2-[Bis-(4-fluoro-phenyl)-methoxy]-ethyl}-2,5-dimethyl-piperazine], the IC50 stood at 0.065 µM.

On to `C[C@@H]1CN(CCOC(c2ccccc2)c2ccccc2)[C@@H](C)CN1CCOC(c1ccccc1)c1ccccc1` [(2S,5R)-1,4-Bis-(2-benzhydryloxy-ethyl)-2,5-dimethyl-piperazine], for which the IC50 is 4 µM.

On to `C[C@@H]1CN(CCOC(c2ccc(F)cc2)c2ccc(F)cc2)[C@@H](C)CN1CCOC(c1ccc(F)cc1)c1ccc(F)cc1` [(2S,5R)-1,4-Bis-{2-[bis-(4-fluoro-phenyl)-methoxy]-ethyl}-2,5-dimethyl-piperazine], for which the IC50 came to 3.64 µM.

Molecule `Fc1ccc(C(OCCN2CCNCC2)c2ccc(F)cc2)cc1` [1-{2-[Bis-(4-fluoro-phenyl)-methoxy]-ethyl}-piperazine] displayed an IC50 of 0.965 µM.

Consider `C[C@@H]1CN(CCOC(c2ccccc2)c2ccccc2)[C@@H](C)CN1` [(2S,5R)-1-(2-Benzhydryloxy-ethyl)-2,5-dimethyl-piperazine], for which the IC50 was 0.067 µM.

Molecule `c1ccc(CCCNC2CCCCN(CCOC(c3ccccc3)c3ccccc3)C2)cc1` (stereo unspecified) [[1-(2-Benzhydryloxy-ethyl)-azepan-3-yl]-(3-phenyl-propyl)-amine] came in with an IC50 of 0.083 µM.

Molecule `C[C@@H]1CN(CCCc2ccccc2)[C@@H](C)CN1CCCc1ccccc1` [(2S,5R)-2,5-Dimethyl-1,4-bis-(3-phenyl-propyl)-piperazine] showed a half-maximal inhibitory concentration (IC50) of 0.0085 µM.

In the case of `c1ccc(C(OCCN2CCN(CCOC(c3ccccc3)c3ccccc3)CC2)c2ccccc2)cc1` [1,4-Bis-(2-benzhydryloxy-ethyl)-piperazine], the IC50 was above 10 µM.

On to `CNCCN(C)CCOC(c1ccccc1)c1ccccc1` [N-(2-Benzhydryloxy-ethyl)-N,N'-dimethyl-ethane-1,2-diamine], for which the IC50 amounted to 0.231 µM.

The molecule `NCCCCNCCOC(c1ccccc1)c1ccccc1` [N*1*-(2-Benzhydryloxy-ethyl)-butane-1,4-diamine] had an IC50 above 10 µM.

Molecule `c1ccc(CCCNCCCCNCCOC(c2ccccc2)c2ccccc2)cc1` [N-(2-Benzhydryloxy-ethyl)-N'-(3-phenyl-propyl)-butane-1,4-diamine] returned an IC50 of 1.05 µM.

As to `c1ccc(CCCN2CCCCC(NCCOC(c3ccccc3)c3ccccc3)C2)cc1` (stereo unspecified) [(2-Benzhydryloxy-ethyl)-[1-(3-phenyl-propyl)-azepan-3-yl]-amine], the IC50 was 0.078 µM.

In turn, `c1ccc(CCCN2CCCCN(CCOC(c3ccccc3)c3ccccc3)CC2)cc1` [1-(2-Benzhydryloxy-ethyl)-4-(3-phenyl-propyl)-[1,4]diazocane] gave an IC50 of 0.18 µM.

`c1ccc(CCCN2CCCN(CCOC(c3ccccc3)c3ccccc3)CC2)cc1` [1-(2-Benzhydryloxy-ethyl)-4-(3-phenyl-propyl)-[1,4]diazepane] yielded an IC50 of 0.026 µM.

`c1ccc(C(OCCN2CCNCC2)c2ccccc2)cc1` [1-(2-Benzhydryloxy-ethyl)-piperazine] yielded an IC50 of 1.48 µM.

Test in a further assay: as above
This is another data set of the same source.
Molecule `c1ccc(CCCN2CCN(CCCc3ccccc3)CC2)cc1` [1,4-Bis-(3-phenyl-propyl)-piperazine] came in with an IC50 of 0.0005 µM.

The molecule `C[C@@H]1CN(CCCc2ccccc2)[C@@H](C)CN1` [(2S,5R)-2,5-Dimethyl-1-(3-phenyl-propyl)-piperazine] showed an IC50 of 0.0085 µM.

Molecule `c1ccc(CCCN2CCNCC2)cc1` [1-(3-Phenyl-propyl)-piperazine] had an IC50 of 0.109 µM.

`Fc1ccc(C(OCCN2CCN(CCOC(c3ccc(F)cc3)c3ccc(F)cc3)CC2)c2ccc(F)cc2)cc1` [1,4-Bis-{2-[bis-(4-fluoro-phenyl)-methoxy]-ethyl}-piperazine]: the IC50 was above 10 µM.

With `C[C@@H]1CN(CCOC(c2ccccc2)c2ccccc2)[C@@H](C)CN1CCCc1ccccc1` [(2S,5R)-1-(2-Benzhydryloxy-ethyl)-2,5-dimethyl-4-(3-phenyl-propyl)-piperazine], the IC50 was found to be 0.0086 µM.

In general, IC50 refers to the concentration that gives 50% inhibition. Higher therefore signals weaker potency in that assay.
